According to patent US20220280405A1, “NOVEL COMPOUNDS FOR SKIN LIGHTENING” (Conopco, Inc. , d/b/a UNILEVER, priority 2019, published 2022):

Tested on: Melanoderm human tissue (MEL-300-B, Mattek Corp.)
Experiment: Melanoderm assay (melanin quantitation)
Format: cell-based
Settings: for Melanin (μg/μg protein): 12 d dosing, melanin normalized to protein, mean +/− standard deviation, n = 3
Experimental: Control compounds consisted of a negative control (ultrapure water), vehicle control (DMSO in ultrapure water—final concentration of 0.1%) and positive control (2% kojic acid in ultrapure water—final concentration of 700 uM). Test compounds where prepared in DMSO at 10 mM concentrations and diluted with EPI-100-LLMM media (Mattek Corp.) to a final concentration of 10 uM. Melanoderm human tissue (MEL-300-B, Mattek Corp.) was equilibrated with EPI-100-NMM media for 24 h, followed by equilibration with EPI-100-LLMM media for 48 h prior to treatment with test compounds and controls. Dosing and re-feeding of melanoderms with controls and test compounds continued for a total of 12 d following standard protocols and the melanoderms collected for melanin quantitation, viability analysis and macroscopic/microscopic imaging analysis. For melanin quantitation, tissues were suspended in PBS buffer (5 ml) for 5 min, removed from the PBS and washed/rinsed with additional PBS (2 ml). Tissues were treated with 1% sodium bicarbonate solution (300 ul) for 30 min, followed by removal of the sodium bicarbonate solution and washed/rinsed with PBS solution (2×2 ml). Tissues were suspended in Solvable reagent (500 ul) and incubated at 95° C. for 24 h along with melanin standard samples (prepared by suspending melanin (cat # M8631, Sigma-Aldrich) in Solvable reagent to generate melanin standards at 0, 2.5, 5, 10, 25, 50 and 100 ug). All incubated samples were centrifuged at 13000 rpm for 5 min and the optical density of the supernatant was read/determined at 490 nm. The amount of melanin (ug) from each tissue sample was determined from the melanin standard samples calibration curve. Protein concentration of tissue samples was determined using the BCA protein assay kit (Pierce) and melanin content was normalized and expressed as melanin (ug)/protein (ug) (Table 1). Tissue viability as a result of test compound dosing/feeding relative to negative and vehicle controls was determined using the WST-1 reagent kit (cat # 05015944001, Roche). […]

Compound | Melanin (μg/μg protein) (positive control 700 μM) | melanin content / skin lightening effect (in words) (melanoderm treatment, 10 uM, compared to vehicle control) | Melanin (μg/μg protein) (test compound 10 uM)
O=c1cc(CO)occ1O [Kojic acid, reference compound] | 0.128 +/− 0.004 μg/μg protein |  | 
CC(C)Oc1ccc(C(NC2CCOCC2)C2CCCCC2)cc1 (stereo not drawn) [Compound of example 1, N-(cyclohexyl(4-isopropoxyphenyl)methyl)tetrahydro-2H-pyran-4-amine] |  | reduced melanin content | 0.177 +/− 0.019 μg/μg protein
